# Data from paper PMC6268262, “Improved Antileishmanial Activity of Dppz through Complexation with Antimony(III) and Bismuth(III): Investigation of the Role of the Metal” (Molecules, 2012).
# Where two headings read alike, the source gives them in different places.
# Legend:
# [1] = tested on: L. amazonensis (WT) promastigotes, strain BA199; experiment: Antileishmanial activity assay, promastigote growth, wild-type strain; format: cell-based, Leishmania amazonensis; conditions: 72 h, 25 °C
# Procedure: (§1) Leishmania (Leishmania) amazonensis (strain MHOM/BR/1989/BA199) and Leishmania (Leishmania)infantum chagasi (strain MCAN/BR/2002/BH400) promastigotes were maintained in minimum essential culture medium (α-MEM) (Gibco, Invitrogen, Grand Island, NY, USA) supplemented with 10% (v/v) heat inactivated fetal calf serum (Cultilab, Campinas, SP, Brazil), […] kanamycin, […] ampicillin, 2 mM L-glutamine, 5 mg/mL hemin, 5 mM biopterin, (Sigma-Aldrich), pH 7.0 and incubated at 25 °C. L. amazonensis and L. infantum chagasi were selected for Sb(III) resistance as previously decribed. The Sb(III)-resistant mutants L. amazonensis BA199Sb2700.2 and L. infantum chagasi BH400Sb2700.2 were selected in 25 cm^2 flasks containing 5 mL of α-MEM in the presence of increasing Sb(III) concentrations up to 2,700 μM.
# (§2) Complexes 1 and 2 were evaluated in vitro for their activity against both Sb(III)-sensitive and -resistant Leishmania parasites. Log-phase L. amazonensis and L. infantum chagasi promastigotes (1 × 10^6 parasites/mL) were seeded in 24-wells cell culture plates with 1.5 mL of α-MEM, incubated under shaking at 25 °C during 72 h in the presence of several concentrations of complex 1 or 2. Controls were performed using cultures in the presence of potassium antimonyl tartrate, SbCl3, BiCl3 and dppz itself. Non-treated parasites were established for growth comparison. Stock solutions of dppz, its complexes, SbCl3 and BiCl3 were dissolved in DMSO (5 M) and diluted in α-MEM cell culture medium to obtain the range of tested concentrations. […] For drug susceptibility assay, Leishmania growth curves were constructed by measuring absorbance at 600 nm. […] All experiments were done at least three times as independent experiments performed in triplicate.
# (§3) The IC50 and CC50 values were calculated by nonlinear regression using the software GraphPad Prism 5.0. The acceptable level of significance was 95% (p < 0.05).
# [2] = tested on: L. infantum chagasi (WT) promastigotes, strain BH400; experiment: Antileishmanial activity assay, promastigote growth (absorbance 600 nm), wild-type strain; format: cell-based, Leishmania infantum chagasi; conditions: 72 h, 25 °C
# Procedure: as §1, §2, §3
# [3] = tested on: L. infantum chagasi (SbR) promastigotes, BH400Sb2700.2; experiment: Antileishmanial activity assay, promastigote growth, Sb-resistant mutant; format: cell-based, Leishmania infantum chagasi; conditions: 72 h, read-out: IC50 (μM) ± SEM
# Procedure: as §1, §2, §3
# [4] = tested on: L. amazonensis (SbR) promastigotes, BA199Sb2700.2; experiment: as above; format: cell-based, Leishmania amazonensis; conditions: 72 h, read-out: IC50 (μM) ± SEM
# Procedure: as §1, §2, §3
# [5] = Cytotoxicity assay against peritoneal macrophages (MTT); format: cell-based, mouse; conditions: mouse peritoneal macrophages, MTT, 24 h
# Procedure: (§4) Macrophages were obtained by lavage of peritoneal cavity of mice with 10 mL cold RPMI without FBS. After washing, the cell suspension (4.0 × 10^6/mL) was seeded (0.1 mL) in 96-well flat bottom plates. Macrophages were allowed to adhere for 2 h and non-adherent cells were removed by washing with RPMI. Then, the studied compounds were added to the wells at concentrations ranging from 1 to 20 μM and the cells were further cultured in RPMI-1640 supplemented with 10% FBS for 24 h at 37 °C in a humidified 5% CO2 atmosphere. Thereafter, the medium was replaced with fresh RPMI containing 0.5 mg/mL of MTT and the plates were incubated for additional 4 h. Supernatants were aspirated and the formazan crystals formed were dissolved in 100 μL of DMSO. After 15 min of incubation at room temperature, absorbance of solubilized MTT formazan product was spectrophotometrically measured at 570 nm.
# as §3
# [6] = tested on: mouse peritoneal macrophages; experiment: as above; format: cell-based
# Procedure: as §4, §3
# Leishmania promastigotes = experiment: microbe, parasite or virus in culture; format: cell-based, Leishmania infantum chagasi and Leishmania amazonensis; conditions: for concentration in whose presence Sb-resistant lines failed to grow: L. infantum chagasi BH400 Sb2700.2 and L. amazonensis BA199 Sb2700.2
# Procedure: as §1, §2
# [7] = n-Octanol/water partition coefficient, Shake-Flask method; format: physicochemical; conditions: phosphate buffer pH 6.8
# Procedure: Then, three different partition system were prepared by adding these solutions to water-saturated octanol, in octanol/water volume ratios, 1:1, 1:2 and 2:1 in duplicate. The mixtures were vortexed for 10 min and then centrifuged for 5 min. The partition coefficients were determined using the absorbance of complexes 1 and 2. Calculated dppz log P value was obtained from the program ALOGPS 2.143 available on line.
# [8] = Stability of the complexes by UV absorption spectroscopy; format: physicochemical; conditions: 10 µmol·L^−1 in DMSO, DMSO-containing water and octanol, 0 to 4 h
# Procedure: The stability of the complexes was checked by UV absorption spectroscopy. For this purpose, UV absorption spectra were registered at different time intervals (from 0 to 4 h) for dppz and complexes 1 and 2 at 10 µmol·L^−1 in DMSO, DMSO-containing water and octanol.
# [9] = L. infantum chagasi (SbR) promastigotes, 25 °C
# [10] = L. amazonensis (SbR) promastigotes, 25 °C
# [11] = listed as dppzBiCl3, read-out: IC50 (μM) ± SEM
# [12] = listed as dppzSbCl3, read-out: IC50 (μM) ± SEM
Molecule,IC50 ([1]; read-out: IC50 (μM) ± SEM),IC50 ([2]; read-out: IC50 (μM) ± SEM),"IC50 [3, 9]","IC50 [4, 10]",log P (octanol/water partition coefficient) [7],UV absorption spectra as a function of time (stability) [8],concentration in whose presence Sb-resistant lines failed to grow (Leishmania promastigotes),other results
"[Cl][Bi]([Cl])[Cl] [BiCl3, Bi(III) chloride]",621 ± 2 µM,563 ± 2 µM,> 500 µM,> 500 µM,–,–,–,–
"c1ccc2nc3c4cccnc4c4ncccc4c3nc2c1 [Dppz, dipyrido[3,2-a:2',3'-c]phenazine]",–,–,–,–,–,–,–,"IC50 ([1]; Leishmania amazonensis, read-out: IC50 (μM) ± SEM): > 2 µM; IC50 ([2]; Leishmania infantum, read-out: IC50 (μM) ± SEM): 0.81 ± 0.04 µM; IC50 ([3]; Leishmania infantum): 1.86 ± 0.08 µM; CC50 at 24 h [5]: 12.5 µM; SI: selective index ([6]; ratio between CC50 in murine macrophages and IC50 in L. infantum chagasi (WT)): 15.4; IC50 ([4]; Leishmania amazonensis): 2 ± 0.05 µM; IC50 (Leishmania promastigotes; Leishmania, read-out: IC50 range over strains): 0.8 to 2 µM"
"[Cl][Sb]([Cl])[Cl] [SbCl3, antimony trichloride]",362 ± 2 µM,341 ± 2 µM,462 ± 3 µM,1503 ± 2 µM,–,–,–,–
"O=C([O-])[C@H]([O-])[C@@H]([O-])C(=O)[O-].O=C([O-])[C@H]([O-])[C@@H]([O-])C(=O)[O-].[K+].[K+].[Sb+3].[Sb+3] [TA, potassium antimonyl tartrate]",83 ± 1 µM,100 ± 3 µM,> 2700 µM,> 2700 µM,–,–,–,–
[Bi(dppz)Cl3] [complex 2],~1 µM,~0.6 µM,0.61 ± 0.02 µM,1.12 ± 0.01 µM,0.98 ± 0.17,did not show significant changes as a function of time,≤ 1.12 µM,"IC50 [1, 11]: 1.07 ± 0.03 µM; IC50 [2, 11]: 0.59 ± 0.01 µM"
[Sb(dppz)Cl3] [complex 1],~1 µM,~0.6 µM,0.57 ± 0.01 µM,0.92 ± 0.02 µM,0.94 ± 0.24,did not show significant changes as a function of time,≤ 1.12 µM,"IC50 [1, 12]: 0.95 ± 0.02 µM; IC50 [2, 12]: 0.62 ± 0.01 µM; CC50 ([6]; read-out: CC50: concentration of dppz which is cytotoxic against 50% of macrophages, mouse peritoneal macrophages, MTT, 24 h): 7 µM"
